In patent publication US20240174690A1, “ANNULATED 2-AMINO-3-CYANO THIOPHENES AND DERIVATIVES FOR THE TREATMENT OF CANCER” (BOEHRINGER INGELHEIM INTERNATIONAL GMBH, priority 2021, published 2024):

Columns and labels:
[1] = system: AsPC-1 cells; assay: AsPC-1 CTG proliferation assay (120 h) (pancreatic cancer, G12D); type: cell-based; settings: Homo sapiens, ASPC1
How it was run: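 AsPC-1 cells (KRAS G12D), 2000/well in RPMI with 10% FCS, seeded overnight, then treated with compound for 120 h at 37 °C. Viability by CellTiter-Glo luminescence as percent of DMSO control. IC50 from a four-parameter non-linear fit.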

[2] = Caco-2 assay (permeability PappAB, PappBA, efflux ratio); type: in vitro ADME; settings: human, Caco-2, 10 μM test compound, pH 7.4; for efflux ratio at 90 min, 10 μM: efflux ratio PappBA/PappAB, read-out: Caco ER; for Papp A→B at 90 min, 10 μM: apical to basolateral
How it was run: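 Confluent Caco-2 monolayers on filter supports, 0.25% BSA in both donor and receiver buffer; transport measured a-b and b-a. After 25-30 min preincubation at 37 °C, samples at 0, 30, 60, 90 min quantified by HPLC/MS/MS. Papp from receiver amount per time, filter area and initial donor concentration; efflux ratio = PappBA/PappAB.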

[3] = system: LOVO cells; assay: LOVO CTG proliferation assay (120 h) (CRC, G13D); type: cell-based; settings: Homo sapiens, CTG 120 h
How it was run: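 LOVO cells, 1000 per well in DMEM + 10% FCS, were plated overnight and then dosed with compound from DMSO stock. After 120 h at 37 °C, viability was read by CellTiter-Glo luminescence as a percentage of DMSO controls. IC50 was derived by four-parameter non-linear regression.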

[4] = system: SAS cells; assay: SAS CTG proliferation assay (120 h) (HNSCC, wt amplified); type: cell-based
How it was run: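 SAS cells plated at 300 per well in DMEM:F12 with 10% FCS and left overnight, then given compounds acoustically. After 120 h exposure, viability read by CellTiter-Glo as percent of DMSO control. IC50 from four-parameter non-linear regression.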

[5] = system: KRAS G12D-dependent Ba/F3 cells; assay: Ba/F3 proliferation assay, KRAS G12D; type: cell-based; settings: Mus musculus, BaF3, 72 h, AlamarBlue
How it was run: (§1)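 Ba/F3 cells retrovirally transduced with KRAS G12 mutants, puromycin-selected and grown without IL-3, so proliferation depends on the mutant KRAS. Compounds tested in technical duplicates; viability read by AlamarBlue fluorescence, with curve fitting for potency.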

[6] = system: KRAS G12V-dependent Ba/F3 cells; assay: Ba/F3 proliferation assay, KRAS G12V; type: cell-based; settings: Mus musculus, BaF3, 72 h, AlamarBlue;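 also: proliferation IC50 in KRAS G12V-dependent Ba/F3 cells read by AlamarBlue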
How it was run: as §1

[7] = system: KRAS G12C-dependent Ba/F3 cells; assay: Ba/F3 proliferation assay, KRAS G12C; type: cell-based; settings: Mus musculus, BaF3, 72 h, AlamarBlue
How it was run: as §1

Row | SMILES | IC50 [1] | efflux ratio at 90 min, 10 μM [2] | IC50 [3] | IC50 [4] | IC50 [5] | IC50 [6] | IC50 [7] | Papp A→B at 90 min, 10 μM [2]
1 | C[C@H](Oc1cc(-n2cc(-c3cccnc3)nn2)nc(-c2noc3c2CCC[C@@]32CCCc3sc(N)c(C#N)c32)n1)[C@@H]1CCCN1C [II-123] | 1540 nM | 4.6 | 72 nM | 113 nM | 93 nM | 24 nM | 15 nM | –
2 | C[C@H](Oc1cc(-c2cn[nH]c2)nc(-c2noc3c2CCC[C@@]32CCCc3sc(N)c(C#N)c32)n1)[C@@H]1CCCN1C [II-87] | 3060 nM | – | 427 nM | 107 nM | 150 nM | 25 nM | 47 nM | < 1.7 ×10⁻⁶ cm/s
3 | C[C@H](Oc1cc(N2CCC[C@@H](O)C2)nc(-c2noc3c2CCC[C@@]32CCCc3sc(N)c(C#N)c32)n1)[C@@H]1CCCN1C [II-59] | 2240 nM | 37.2 | 72 nM | 31 nM | 35 nM | 31 nM | 31 nM | 0.9 ×10⁻⁶ cm/s
4 | C[C@H](Oc1cc(N2C[C@H](C)N[C@@H](C)C2)nc(-c2onc3c2CCC[C@@]32CCCc3sc(N)c(C#N)c32)n1)[C@@H]1CCCN1C [I-6] | 1700 nM | 15 | 1220 nM | 3440 nM | 14 nM | 316 nM | 253 nM | 2.9 ×10⁻⁶ cm/s
5 | C[C@H](Oc1cc(-c2cccc(CO)c2)nc(-c2noc3c2CCC[C@@]32CCCc3sc(N)c(C#N)c32)n1)[C@@H]1CCCN1C [II-97] | 2360 nM | – | 683 nM | 646 nM | 198 nM | 26 nM | 58 nM | < 9.7 ×10⁻⁶ cm/s
6 | C[C@H](Oc1cc(N2CC[C@H](N(C)C)C2)nc(-c2onc3c2CCC[C@@]32CCCc3sc(N)c(C#N)c32)n1)[C@@H]1CCCN1C [I-11] | 565 nM | – | 1710 nM | 651 nM | 24 nM | 416 nM | 331 nM | < 4.1 ×10⁻⁶ cm/s
7 | CO[C@@H]1C[C@@H]([C@H](C)Oc2cc(-n3ccnc3)nc(-c3noc4c3CCC[C@@]43CCCc4sc(N)c(C#N)c43)n2)N(C)C1 [II-58] | 6420 nM | 1.2 | 113 nM | 342 nM | 45 nM | 9 nM | 41 nM | 13 ×10⁻⁶ cm/s
8 | C[C@H](Oc1cc(-c2cnn(C)n2)nc(-c2noc3c2CCC[C@@]32CCCc3sc(N)c(C#N)c32)n1)[C@@H]1CCCN1C [II-86] | 4140 nM | 0.8 | 77 nM | 502 nM | 59 nM | 14 nM | 25 nM | 12 ×10⁻⁶ cm/s
9 | C[C@H](Oc1cc(C2CCOCC2)nc(-c2noc3c2CCC[C@@]32CCCc3sc(N)c(C#N)c32)n1)[C@@H]1CCCN1C [II-76] | 3970 nM | 3.7 | 51 nM | 66 nM | 30 nM | 19 nM | 18 nM | 6.5 ×10⁻⁶ cm/s
10 | C[C@H](Oc1cc(-n2cc3c(n2)CCNC3)nc(-c2noc3c2CCC[C@@]32CCCc3sc(N)c(C#N)c32)n1)[C@@H]1CCCN1C [II-53] | 825 nM | 22 | 495 nM | 1720 nM | 57 nM | 285 nM | 292 nM | 1.5 ×10⁻⁶ cm/s
11 | C[C@H](Oc1cc(-c2cncnc2)nc(-c2noc3c2CCC[C@@]32CCCc3sc(N)c(C#N)c32)n1)[C@@H]1CCCN1C [II-82] | 5450 nM | 9.2 | 728 nM | 990 nM | 200 nM | 44 nM | 82 nM | 2.5 ×10⁻⁶ cm/s
12 | C[C@H](Oc1cc(N2C[C@H](C)N[C@@H](C)C2)nc(-c2noc3c2CCC[C@@]32CCCc3sc(N)c(C#N)c32)n1)[C@@H]1CCCN1C [II-56] | 378 nM | 2.3 | 661 nM | 1430 nM | 20 nM | 166 nM | 233 nM | 7.5 ×10⁻⁶ cm/s
13 | COC(=O)c1ccc(-c2cc(O[C@@H](C)[C@@H]3CCCN3C)nc(-c3noc4c3CCC[C@@]43CCCc4sc(N)c(C#N)c43)n2)o1 [II-114] | 2300 nM | 0.9 | 142 nM | 28 nM | 99 nM | 7 nM | 16 nM | –
